According to patent US7776597B2, “Method of inducing embryonic stem cells into pancreatic cells” (Beijing Hua Yuan Bo Chuang Technology Limited, priority 2005, dated 2010):

B1: activin A: a member of TGF-β superfamily; disulfide-stabilized protein (protein, UniProt P08476 311-426, looked up)
Inhibin beta A chain: GLECDGKVNICCKKQFFVSFKDIGWNDWIIAPSGYHANYCEGECPSHIAGTSGSSLSFHSTVINHYRMRGHSPFANLKSCCVPTKLRPMSMLYYDDGQNIIKKDIQNMIVEECGCS

Tests used:
ES-R1 cells [1] = test: RT-PCR analysis of marker gene expression in differentiated mouse ES cells; format: cell-based, mice; details: end of step 2
Procedure: (§1) Step 1, to induce embryonic body (EB) formation, ES cells were dissociated with trypsin and suspended into Petri dishes (Alpha medical instrument) with 10% FBS/DMEM without LIF. After 24 to 48 hours (See FIG. 1B), EBs were collected and re-plated into 10% FBS/DMEM without LIF in 1% Matrigel (BD Biosciences) coated dishes. Two hours later, EBs began to spread onto the dishes and were cultured in 10% FBS/DMEM with 100 ng/ml activin A (Sigma) for 24 hours. Then EBs were switched to 10% FBS/DMEM for 6-8 hours as an interval. After this interval, the differentiated EB cells were cultured in 10% FBS/DMEM with 10^−6 M RA (Sigma) for another 24 hours.
(§2) Step 3, to mature the insulin producing cells, the expanded cells in step 2 were switched to DMEM/F12 (Gibco-BRL) with N2 supplement (1:100, Gibco-BRL), B27 supplement (1:50 Gibco-BRL), 1 μg/ml Laminin (Sigma), 10 ng/ml bFGF (Sigma) and 10 mM nicotinamide (Sigma) and cultured for 3-5 days (Lumelsky N, Blondel O, Laeng P, et al. Differentiation of embryonic stem cells to insulin-secreting structures similar to pancreatic islets. Science 2001; 292:1389-1394.) The morphology of cells was observed under a Nikon phase-contrast microscope (TS-100).
Total RNA was extracted by Catrimox-14 kit (TaKaRa) from the cells in step 2 or step 3 which were induced by both with and without activin A and RA or with only one of them. […]

ES-R1 cells [2] = test: Cell cluster formation on coated dishes during three-step induction; format: cell-based, mice; details: dish coating matrix, third step of induction
Procedure: as §1, §2

Molecule | marker genes expressed (RT-PCR) (ES-R1 cells [1]) | cell cluster formation (ES-R1 cells [2])
CC1=C(/C=C/C(C)=C/C=C/C(C)=C/C(=O)O)C(C)(C)CCC1 [RA, All-trans retinoic acid] | express only hnf3β | –
laminin | – | no cell clusters formed
B1 | mainly express hnf3β and pdx-1 | –
